The structures appear in SMILES notation.

In this test the test system is SMN2-luciferase reporter. Description: SMN2-luciferase reporter qHTS assay. The test is classed as cell-based, human. The settings on record: for Curve Class: agonist/antagonist character of the concentration-response, lower values = more significant concentration-response; for Increased SMN2 activity: percent increase (or decrease) in SMN2 levels compared to control in which no test compound is added. Also on record: key to Curve Class: A curve class of 1.1 is a full agonist/antagonist; a curve class of 4 indicates the compound is inactive. The source says:
A cell-based quantitative high throughput screening (qHTS) assay is used to identify compounds able to increase SMN production. The assay uses a SMN2-luciferase reporter to determine if exon 7 of the SMN gene is expressed, which correlates with increased full-length SMN production from the SMN2 gene. As controls, a homologue SMN1-luciferase reporter cell line looks for variations in expression of the SMN1 gene and a cell line with just the luciferase reporter looks at the capacity of the compounds to inhibit luciferase. In addition, increments in SMN production by lead compounds were confirmed by Western-Blot analysis using SMA patient fibroblasts.
For the qHTS assay, concentration-response profiles are generated at the primary-screen level for each library compound to minimize the number of false positives. A dilution series consisting of seven points separated by five-fold concentration differences is prepared for each compound, yielding a concentration series that spans a range of about four orders of magnitude, for example from a high concentration of 50 micromolar to a low concentration of 3.2 nanomolar and providing adequate data for fitting to a Hill equation. For the assay, the SMN2 reporter cell line was plated at a density of ˜2000 cells/well in complete media (phenol red free DMEM, 10% detacl calf serum, and 1× pen/strep), in 1536 well white solid bottom tissue culture treated plates (Greiner). Cells were allowed to adhere and recover at 37 C in 5% CO2 for 10-12 hours. Compounds were added to the plates by a Pintool (Kalypsys) at a volume of 23 nl/well. Cells were incubated in the presence of compounds for 2 days at 37 C in 5% CO2. In order to quantify luciferase reporter levels, 3 ul/well of OneGlo (Promega) was added to each well and incubated at room temperature for 10 minutes. Luminescence from the reporter in each well is measured using a Viewlux CCD based imager (Perkin Elmer) with an integration time of 30 seconds and a binning of 2× in luminescence mode. Sodium butyrate was used as the positive control compound for luciferase induction and a column of 32 wells of 9.2 mM compound on each plate was used to monitor assay performance.
The SMN reporters used herein are modified from those previously described (M. L. Zhang, C. L. Lorson, E. J. Androphy and J. Zhou, An in vivo reporter system for measuring increased inclusion of exon 7 in SMN2 mRNA: potential therapy of SMA, Gene Ther 8 (2001), pp. 1532-1538.)
The sequence of the SMN1 reporter vector used herein is given in SEQ ID NO.:1, while that of the SMN2 reporter vector is given in SEQ ID NO.:2.
Each of the SMN reporters is constructed from three separate DNA fragments: (1) an SMN promotor sequence from the transcriptional reporter p 4.0T (SMN1) or p3.4C (SMN2) described in Monani, et al. Biochimica et Biophysica Acta 1445 (1999) 330-336; (2) a modification of the firefly luciferase splicing reporter for SMN1 or SMN2 described by Zhang et al; and (3) a 744 bp SMN cDNA fragment.
The 3.7 kB SMN1 promoter fragment is obtained by restriction of p4.0T with BglII and SacII. A 3.4 kB SMN2 promoter fragment is obtained by restriction of p3.4C with KpnI and SacII; a 300 bp BglII/KpnI fragment from p4.0T is then added to the 3.4 kB SMN2 promoter fragment to yield the final 3.7 kB SMN2 promoter fragment.
The modified SMN1 and SMN2 firefly luciferase splicing reporters are obtained by removing 4 kB of intron 6 in the original reporter system by restriction with SmaI/Swa followed by religation of the reporter. A 4 kB luciferase splicing reporter is then obtaind by digestion with XhoI and NotI.
Ths SMN cDNA fragment is obtained by generating the productof a polymerase chain reaction (PCR) on a cDNA preparation using […] (SEQ ID NO:3) as the forward primer and Tatctcgagtggtccagaaggaaatggaggcagcc (SEQ ID NO:4) as the reverse primer. The PCR product is then digested with XhoI and SacII. […]
(A reporter such as luciferase makes a cellular process visible.)

`Cc1ccc(-c2csc(N3CCC(C(N)=O)CC3)n2)cc1` [Example 21, 1-(4-(4-Methylphenyl)Thiazol-2-yl)Piperidine-4-Carboxamide]: the “Curve Class” value was 1.1 and the “Increased SMN2 activity” value worked out at 439.1%.

For the compound `COc1ccc(-c2cnc(N3CCC(C(N)=O)CC3)s2)cc1OC` [Example 150, 1-(5-(3,4-Dimethoxyphenyl)Thiazol-2-yl)Piperidine-4-Carboxamide], the “Curve Class” value came out at 1.1 and the “Increased SMN2 activity” value is 209.7%.

Regarding `NC(=O)C1CCN(c2nc(-c3ccc(Oc4ccccc4)cc3)cs2)CC1` [Example 92, 1-(4-(4-Phenoxyphenyl)Thiazol-2-yl)Piperidine-4-Carboxamide], the “Curve Class” value turned out to be 1.1 and the “Increased SMN2 activity” value turned out to be 240%.

In the case of `CC(=O)c1ccc(-c2csc(N3CCC(C(N)=O)CC3)n2)cc1` [Example 45, 1-(4-(4-Acetylphenyl)Thiazol-2-yl)Piperidine-4-Carboxamide], the “Curve Class” value stood at 2.1 and the “Increased SMN2 activity” value is 130.4%.

With `CC(=O)NC1CCN(c2nc(-c3ccc(Br)cc3)cs2)CC1` [Example 113, N-(1-(4-(4-Bromophenyl)Thiazol-2-yl)Piperidin-4-yl)Acetamide], the “Curve Class” value is recorded as −1.4 and the “Increased SMN2 activity” value is −56.62%.

In the case of `NC(=O)C1CCN(c2ncc(-c3cccc(N4CCCC4)c3)s2)CC1` [Example 137, 1-(5-(3-(Pyrrolidin-1-yl)Phenyl)Thiazol-2-yl)Piperidine-4-Carboxamide], the “Curve Class” value is given as 1.1 and the “Increased SMN2 activity” value is given as 685.1%.

For `Brc1ccc(-c2csc(N3CCC(c4nnn[nH]4)CC3)n2)cc1` [Example 112, 2-(4-(1H-Tetrazol-5-yl)Piperidin-1-yl)-4-(4-Bromophenyl)Thiazole], the “Curve Class” value is recorded as 2.1 and the “Increased SMN2 activity” value was determined as 66.77%.

Consider `NC(=O)C1CCN(c2nc(-c3cccc([N+](=O)[O-])c3)cs2)CC1` [Example 37, 1-(4-(3-Nitrophenyl)Thiazol-2-yl)Piperidine-4-Carboxamide], for which the “Curve Class” value is 2.4 and the “Increased SMN2 activity” value is listed as 20.29%.

With `CCOC(=O)C1CCN(c2ncc(-c3ccc4c(c3)OCCCO4)s2)CC1` [Example 146, Ethyl 1-(5-(3,4-Dihydro-2H-Benzo[B][1,4]Dioxepin-7-yl)Thiazol-2-yl)Piperidine-4-Carboxylate], the “Curve Class” value is recorded as 1.1 and the “Increased SMN2 activity” value is 319.6%.

As for `NC(=O)C1CCN(c2ncnc(-c3ccc4c(c3)OCCCO4)n2)CC1` [Example 144, 1-(4-(3,4-Dihydro-2H-Benzo[B][1,4]Dioxepin-7-yl)-1,3,5-Triazin-2-yl)Piperidine-4-Carboxamide], the “Curve Class” value is on record as 1.1 and the “Increased SMN2 activity” value came to 186.2%.

`O=C(NCCc1ccccc1)C1CCN(c2nc(-c3ccc(Br)cc3)cs2)CC1` [Example 77, 1-(4-(4-Bromophenyl)Thiazol-2-yl)-N-Phenethylpiperidine-4-Carboxamide]: the “Curve Class” value is listed as 2.4 and the “Increased SMN2 activity” value worked out at 31.29%.

Take `CC(C)(C)c1ccc(-c2csc(N3CCC(C(N)=O)CC3)n2)cc1` [Example 98, 1-(4-(4-Tert-Butylphenyl)Thiazol-2-yl)Piperidine-4-Carboxamide]: the “Curve Class” value is on record as 1.1 and the “Increased SMN2 activity” value is on record as 243.3%.

As to `Cc1ccc(-c2ccnc(N3CCC(C(N)=O)CC3)n2)cc1` [Example 126, 1-(4-P-Tolylpyrimidin-2-yl)Piperidine-4-Carboxamide], the “Curve Class” value is 1.1 and the “Increased SMN2 activity” value came to 444.6%.

Consider `Brc1ccc(-c2csc(N3CCCCC3)n2)cc1` [Example 32, 4-(4-Bromophenyl)-2-(Piperidin-1-yl)Thiazole], for which the “Curve Class” value was 2.1 and the “Increased SMN2 activity” value was 272.6%.

For `NC(=O)C1CCN(c2nnc(-c3ccc4c(c3)OCCCO4)s2)CC1` [Example 130, 1-(5-(3,4-Dihydro-2H-Benzo[B][1,4]Dioxepin-7-yl)-1,3,4-Thiadiazol-2-yl)Piperidine-4-Carboxamide], the “Curve Class” value turned out to be 1.1 and the “Increased SMN2 activity” value is 257.1%.

Regarding `NC1CCN(c2nc(-c3ccc(Br)cc3)cs2)CC1` [Example 111, 1-(4-(4-Bromophenyl)Thiazol-2-yl)Piperidin-4-Amine], the “Curve Class” value is on record as 1.1 and the “Increased SMN2 activity” value turned out to be 182.6%.

Consider `NC(=O)C1CCN(c2nc(-c3ccccc3Cl)cs2)CC1` [Example 39, 1-(4-(2-Chlorophenyl)Thiazol-2-yl)Piperidine-4-Carboxamide], for which the “Curve Class” value is recorded as 2.2 and the “Increased SMN2 activity” value was 57.61%.

For `NC(=O)C1CCN(c2nc(-c3ccccc3F)cs2)CC1` [Example 38, 1-(4-(2-Fluorophenyl)Thiazol-2-yl)Piperidine-4-Carboxamide], the “Curve Class” value worked out at 1.1 and the “Increased SMN2 activity” value is 274.6%.

With `NC(=O)C1CCN(c2ncc(-c3ccc4c(c3)OC(F)(F)O4)s2)CC1` [Example 153, 1-(5-(2,2-Difluorobenzo[D][1,3]Dioxol-5-yl)Thiazol-2-yl)Piperidine-4-Carboxamide], the “Curve Class” value was found to be 1.1 and the “Increased SMN2 activity” value is reported as 598.4%.

Take `c1c[nH]c(C2CCN(c3ncc(-c4ccc5c(c4)OCCCO5)s3)CC2)n1` [Example 135, 2-(4-(1H-Imidazol-2-yl)Piperidin-1-yl)-5-(3,4-Dihydro-2H-Benzo[B][1,4] Dioxepin-7-yl)Thiazole]: the “Curve Class” value was 1.1 and the “Increased SMN2 activity” value is reported as 129.4%.

For `NC(=O)C1CCN(c2ncc(-c3ccc4c(c3)OCO4)s2)CC1` [Example 125, 1-(5-(Benzo[D][1,3]Dioxol-5-yl)Thiazol-2-yl)Piperidine-4-Carboxamide], the “Curve Class” value was 1.1 and the “Increased SMN2 activity” value amounted to 589.875%.

Turning to `NC(=O)C1CCN(c2nc(-c3ccc4occc(=O)c4c3)cs2)CC1` [Example 50, 1-(4-(4-Oxo-4H-Chromen-6-yl)Thiazol-2-yl)Piperidine-4-Carboxamide], the “Curve Class” value came to 2.1 and the “Increased SMN2 activity” value was 589.68%.

Consider `NC(=O)C1CCN(c2nc(-c3cccc4sc5ccccc5c34)cs2)CC1` [Example 64, 1-(4-(Dibenzo[b,d]Thiophen-1-yl)Thiazol-2-yl)Piperidine-4-Carboxamide], for which the “Curve Class” value was 2.1 and the “Increased SMN2 activity” value turned out to be 369%.

For `NC(=O)C1CCN(c2nc(-c3ccc4c(c3)OCCCO4)cs2)CC1` [Example 99, 1-(4-(3,4-Dihydro-2H-Benzo[B][1,4]Dioxepin-7-yl)Thiazol-2-yl)Piperidine-4-Carboxamide], the “Curve Class” value turned out to be 1.1 and the “Increased SMN2 activity” value is reported as 443.2%.

For the compound `NC(=O)C1CCN(c2nc(-c3ccc(F)cc3)cs2)CC1` [Example 19, 1-(4-(4-Fluorophenyl)Thiazol-2-yl)Piperidine-4-Carboxamide], the “Curve Class” value stood at 1.1 and the “Increased SMN2 activity” value is reported as 287.7%.

For the compound `NC(=O)C1CCN(c2ncc(-c3ccc(Br)cc3)s2)CC1` [Example 87, 1-(5-(4-Bromophenyl)Thiazol-2-yl)Piperidine-4-Carboxamide], the “Curve Class” value is 1.1 and the “Increased SMN2 activity” value amounted to 598.7%.

For the origin of these results see US20130096160A1, “ARYLTHIAZOLYL PIPERIDINES AND RELATED COMPOUNDS AS MODULATORS OF SURVIVAL MOTOR NEURON (SMN) PROTEIN PRODUCTION” (Secretary, Department of Health and Human Services, priority 2010, published 2013).
